Data on five compounds can be found in paper PMC9110316 (Computational and Structural Biotechnology Journal, 2022).

Assay [1] deals with SARS-CoV-2 B.1.351 (Beta) variant pseudovirus. The assay can be described thus: organism not typed. The assay is classed as cell-based. To be noted: A549, read-out: EC50, inhibition of SARS-CoV-2 B.1.351 (Beta) variant pseudovirus infection.
The test system is the same in assay [2]. Nature of the assay: organism not typed. The format is cell-based. To be noted: Huh-7, read-out: EC50, inhibition of SARS-CoV-2 B.1.351 (Beta) variant pseudovirus infection.

Where two headings read alike, the source gives them in different places. Where a SMILES comes first, the peptide text is derived from it. [ ]: non-standard residue; d: D form. The star is where a group is joined. Nle = CCCC[CH](N)C(=O)O; Cbz = O=C(OCc1ccccc1)*

Regarding `CCCCC(C=O)NC(=O)C(CC(C)C)NC(=O)C(CC(C)C)NC(C)=O` (stereo not drawn) [Mg-101] (Ac-Leu-Leu-[Nle]-aldehyde; configuration not given here), the values for the half-maximal effective concentration (EC50) in assay [1] and in assay [2] were 1.89 µM and 0.86 µM, respectively.
The matching figures for `CC(C)C[C@@H](C=O)NC(=O)[C@H](CC(C)C)NC(=O)[C@H](CC(C)C)NC(=O)OCc1ccccc1` [Mg-132] (Cbz-Leu-Leu-Leu-aldehyde): 0.908 µM and 0.901 µM.
For `CC(NC(=O)C(Cc1ccccc1)NC(=O)OCc1ccccc1)C(=O)CF` (stereo not shown) [Z-FA-FMK], in that order: 5.31 µM and 10 µM.
The matching figures for `CCCC[C@@H](C=O)NC(=O)[C@H](CC(C)C)NC(=O)OCc1ccccc1` [calpeptin]: 36.4 µM and 23.9 µM.
For `CC(=O)N[C@@H](CC(C)C)C(=O)N[C@@H](CC(C)C)C(=O)N[C@H](C=O)CCCNC(=N)N` [leupeptin hemisulfate], the EC50 (usually the concentration at which the effect is half-maximal) in assay [1] was found to be 7.71 µM; in assay [2], 17.1 µM.
